Patent US10034880B2, “Ophthalmic suspension formulation” (Sumitomo Dainippon Pharma Co., Ltd., priority 2014, dated 2018)
Entries after “also recorded” stand apart in the source; their conditions may differ. Where two headings read alike, the source gives them in different places. Blank lines part the entries; values can stand above or below the molecule they belong to.

Columns and labels:
[1] = Evaluation of transferability to posterior eye segment in rats (I-1) and (I-2); assay type: in vivo; settings: SDT, rat, oral repetitive administration 1.0 mg/kg once a day for 21 days, 60 minutes after final administration
Method: To both eyes of rat model of diabetes, ophthalmic suspension formulation A1 wherein Compound A was suspended in a generally-tolerated dose as a suspension formulation (200 mg/mL) or ophthalmic solution formulation Z wherein Compound A was dissolved (400 μg/mL) was administered in eyedrops in the amount of 5 μL for one eye (which is a maximum tolerated dose for eyedrops in rats) totally 5 times at intervals of 5 minutes. 60 minutes after the administration, each concentration of Compound A in cornea, retina and plasma was measured.
Eyedrop has a limitation about tolerated volume of one shot, which is different from other dosage forms. Thus, the delivery amount of the drug to the target tissue which is obtained from eyedrop of a maximum tolerated dose is important. The tolerated volume varies depending on animal species, and the maximum volume in rats is 5 μL for one eye. […]
In addition, Diabetic Retinopathy, INTECH, Chapter 15 “Prophylactic Medical Treatment of Diabetic Retinopathy”, Akihiro Kakehashi et al. disclose an experiment of oral repetitive administration of Compound A to SDT rats, wherein the dose of Compound A making the retinal capillary weakened and the VEGF production in retina inhibited is 1.0 mg/kg. […] 60 minutes after the final administration, each concentration of Compound A in cornea, retina and plasma was measured.

[2] = test system: VEGF production in retina; settings: oral repetitive administration, SDT rats; cited from earlier work
[3] = target: aldose reductase (Homo sapiens, UniProt P15121); test: AR inhibitory action; assay type: biochemical
[4] = test system: normal human retinal capillary endothelial cell (HREC); test: Cell migration assay: inhibition of facilitatory action of cell migration by VEGF stimulation; assay type: cell-based
Method: The anti-VEGF action of Compound A was evaluated by an experimental method (cell migration assay) described in J Diabetes Complications. 2012; 26(5):369-77. In the experiment, a normal human retinal capillary endothelial cell (HREC) which was obtained from Cell System Co., LTD. was used, and a cell culture used herein was CS-C medium (Cell System Co., LTD.). […] As for Lucentis, its formulation stock solution was diluted with the cell culture, wherein the dilution ratio was 50 μL of the formulation stock solution per 4 mL of the cell culture, and the diluted solution was used in the experiment. The HREC was seeded in 6-well plate, and it was incubated until the confluency became 80-90%. 20-24 hours before assaying the cell migration by the VEGF stimulation, the cell culture was changed to a cell culture containing 0.1% fetal bovine serum. Then, the culture cell monolayer was wounded with a 200 μL pipette tip at one point per well, and the width of the wounds were measured with a microscope. […] About 18 hours after changing the cell culture, each width of the wounds was measured with a microscope, and the anti-VEGF action was evaluated by comparing the width with that of the just-wounded one.

[5] = Evaluation of transferability to posterior eye segment in rats (V); assay type: in vivo, SD rats; settings: ophthalmic suspension formulations, eyedrops 5 μL for one eye once; 60 minutes after administration
Method: To both eyes of SD rats, ophthalmic formulation I, ophthalmic formulation F, ophthalmic formulation G, ophthalmic formulation X1, ophthalmic formulation X2, ophthalmic formulation Y1, or ophthalmic formulation Y2 was administered in eyedrops in the amount of 5 μL for one eye once. 60 minutes after the administration, each concentration of Compound A in retina was measured.

delivery to retina [5]: hardly delivered to retina
Molecule: NC(=O)[C@@H]1C[C@]2(NC(=O)NC2=O)c2cc(F)ccc2O1 [Compound C, (2S,4S)-6-fluoro-2′,5′-dioxospiro[chroman-4,4′-imidazolidine]-2-carboxamide]

delivery to retina [5]: hardly delivered to retina
Molecule: CC(/C=C1\SC(=S)N(CC(=O)O)C1=O)=C\c1ccccc1 [Compound B, [5-[(1Z,2E)-2-methyl-3-phenylallylidene]-4-oxo-2-thioxothiazolidin-3-yl]acetic acid]

The next lines start with the molecule.

Molecule: O=C1C[C@@]2(C(=O)N1)C(=O)N(Cc1ccc(Br)cc1F)C(=O)c1cccn12 [Compound A, (R)-(−)-2-(4-bromo-2-fluorobenzyl)-1,2,3,4-tetrahydropyrrolo[1,2-a]pyrazine-4-spiro-3′-pyrrolidine-1,2′,3,5′-tetrone]
Kp at 60 min ([1]; cornea and plasma (cornea/plasma ratio), read-out: concentration ratio cornea to plasma (plasma:cornea:retina, plasma = 1)): ~1
Kp at 60 min ([1]; retina and plasma (retina/plasma ratio), po, 1 mg/kg, read-out: retina/plasma ratio): ~1
oral dose making the retinal capillary weakened and the VEGF production in retina inhibited [2]: 1.0 mg/kg
Ki [3]: 0.23 nM
AR inhibitory action, action ratio relative to Compound A ([3]; figure in brackets): 1.0 ×
action inhibiting the HREC migration, comparison ([4]; 1 nM Compound A, VEGF stimulation, about 18 hours): in the same level as that of 100 nM ((28 ng/mL)/L) Compound C; also recorded: more potent than that of 1000 nM ((320 ng/mL)/L) Compound B; also recorded: in the same level as Lucentis
delivery to retina [5]: delivered to retina much more than the ophthalmic suspension formulation comprising Compound B or C

B1: Lucentis: anti-VEGF antibody formulation (general name: ranibizumab) (antibody, chains of the INN, looked up, V domains shown)
VH: EVQLVESGGGLVQPGGSLRLSCAASGYDFTHYGMNWVRQAPGKGLEWVGWINTYTGEPTYAADFKRRFTFSLDTSKSTAYLQMNSLRAEDTAVYYCAKYPYYYGTSHWYFDVWGQGTLVTVSS
VL: DIQLTQSPSSLSASVGDRVTITCSASQDISNYLNWYQQKPGKAPKVLIYFTSSLHSGVPSRFSGSGSGTDFTLTISSLQPEDFATYYCQQYSTVPWTFGQGTKVEIK
inhibition of HREC migration facilitated by VEGF stimulation ([4]; about 18 hours after changing the cell culture): inhibited the migration
